Data on 1 molecule can be found in patent publication US9920074B2 (ACEA BIOSCIENCES INC., priority 2013, dated 2018).

The structures appear in SMILES notation. “Also recorded” adds a separate entry of the source. Read-outs that look alike come from different tables or passages of the source. Some results are limits rather than exact numbers.

What all share (assay type): cell-based
The test system of experiment [1] is Stat5 phosphorylation in NK-92 cells. The experiment can be described thus: Western blotting assay for Stat5. Conditions: NK92, 1 hour, IL-2 stimulation, read-out: Stat5 inhibition. The method in brief: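 NK-92 cells, maintained with IL-2, were pre-treated with compound for 1 h, then stimulated with IL-2 for 15 min. Lysates were western blotted for phospho- and total Jak3 and Stat5. IC50 came from densitometry of phospho-band intensity.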

Experiment [2] concerns the target T1, Btk (Tyr223) phosphorylation in Ramos cells (Homo sapiens, UniProt Q06187).
T1 construct: endogenous in cells; host or cells: Ramos cells (ATCC)
Description: Btk Tyr223 phosphorylation inhibition, western blotting assay (Example 72). Here is the method: Ramos cell line was obtained from the American Type Culture Collection and was maintained at 37° C. with 5% CO2, in media supplemented with 10% fetal bovine serum, penicillin (100 units/mL) and streptomycin (100 μg/mL), Goat F(ab′)2 Anti-Human IgM-UNLB was obtained from SouthernBiotech.
Ramos cells were treated with compounds at indicated doses for 45 min at room temperature, followed by stimulation of 12 μg/mL of IgM for 30 min, and then lysed. Western blots were performed on the cell lysate using Phospho-Btk (Tyr223), Phospho-Btk (Tyr551), Btk, Phospho-PLCγ2 (Tyr1217), PLCγ2, Phospho-p44/42 MAPK (Erk1/2) (Thr202/Tyr204) and p44/42 MAPK (Erk1/2) antibodies (Cell Signaling Technology). The density of blotting band was acquired using ImageJ software, and the IC50 of Btk (Tyr223) phosphorylation was fitted using a non-linear regression model by GraphPad Prism version 4.0.
On the technique in general: A western blot detects proteins with antibodies after separation by electrophoresis.

Experiment [3] has as its target T2, Jak3 phosphorylation in NK-92 cells (Homo sapiens, UniProt P52333).
T2 construct: endogenous in cells; host or cells: NK-92 cells (ATCC)
T2 sequence (P52333 1-1124): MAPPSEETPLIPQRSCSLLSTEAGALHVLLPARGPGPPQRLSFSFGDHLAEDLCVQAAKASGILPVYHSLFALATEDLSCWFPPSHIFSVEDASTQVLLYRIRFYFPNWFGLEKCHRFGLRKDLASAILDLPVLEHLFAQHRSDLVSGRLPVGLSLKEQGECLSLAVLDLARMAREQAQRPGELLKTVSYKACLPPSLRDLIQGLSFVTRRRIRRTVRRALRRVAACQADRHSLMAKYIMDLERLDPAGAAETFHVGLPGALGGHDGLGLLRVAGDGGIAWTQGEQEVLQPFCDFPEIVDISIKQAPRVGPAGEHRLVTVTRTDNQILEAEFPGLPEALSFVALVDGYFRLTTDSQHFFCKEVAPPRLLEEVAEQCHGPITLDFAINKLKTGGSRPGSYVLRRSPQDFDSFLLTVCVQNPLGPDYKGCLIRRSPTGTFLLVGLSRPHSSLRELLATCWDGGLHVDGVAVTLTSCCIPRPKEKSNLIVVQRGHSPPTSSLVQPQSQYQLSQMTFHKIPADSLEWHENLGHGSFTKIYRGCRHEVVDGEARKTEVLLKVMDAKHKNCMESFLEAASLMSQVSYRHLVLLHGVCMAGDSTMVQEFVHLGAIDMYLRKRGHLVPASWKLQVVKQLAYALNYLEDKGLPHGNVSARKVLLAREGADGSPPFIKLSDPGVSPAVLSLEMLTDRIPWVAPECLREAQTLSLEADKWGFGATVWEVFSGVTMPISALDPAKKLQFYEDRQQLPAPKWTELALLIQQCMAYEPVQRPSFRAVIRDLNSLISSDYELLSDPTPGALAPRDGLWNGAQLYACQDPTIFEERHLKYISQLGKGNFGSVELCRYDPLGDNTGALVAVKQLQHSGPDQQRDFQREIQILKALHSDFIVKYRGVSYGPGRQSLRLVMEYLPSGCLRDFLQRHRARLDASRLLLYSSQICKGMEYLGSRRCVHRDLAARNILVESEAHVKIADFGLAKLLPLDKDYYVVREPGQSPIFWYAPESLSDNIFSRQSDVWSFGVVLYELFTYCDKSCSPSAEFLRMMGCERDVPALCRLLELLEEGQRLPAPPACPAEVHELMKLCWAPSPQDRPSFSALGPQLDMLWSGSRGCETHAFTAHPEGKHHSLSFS
The experiment can be described thus: Western blotting assay for Jak3. To be noted: 1 hour, IL-2 stimulation, read-out: Jak3 inhibition. Here is the method:
All cell lines were obtained from the American Type Culture Collection and were maintained at 37° C. with 5% CO2. Ramos cell line was maintained in media supplemented with 10% fetal bovine serum, penicillin (100 units/mL) and streptomycin (100 μg/mL). NK-92 cell line was maintained in media supplemented with 10% fetal bovine serum and 10% horse serum, penicillin (100 units/mL) and streptomycin (100 μg/mL), IL-2 10 ng/mL. Goat F(ab′)2 Anti-Human IgM-UNLB was obtained from SouthernBiotech. IL-2 was obtained from Peprotech.
NK-92 cells were treated with compounds at the dosed indicated for 1 hour in incubator, followed by the IL-2 stimulation for 15 minutes. Cells were then collected and lysed to prepare the cellular extraction. Western blots were performed on cell lysate using Phospho-Jak3, Jak3, Phospho-Stat5, Stat5 antibodies (Cell Signaling Technology). The intensity of blotting band was acquired using Image Lab (Bio-Rad) software, and the IC50 of target was generated with GraphPad Prism.

T1 sequence (Q06187 whole entry): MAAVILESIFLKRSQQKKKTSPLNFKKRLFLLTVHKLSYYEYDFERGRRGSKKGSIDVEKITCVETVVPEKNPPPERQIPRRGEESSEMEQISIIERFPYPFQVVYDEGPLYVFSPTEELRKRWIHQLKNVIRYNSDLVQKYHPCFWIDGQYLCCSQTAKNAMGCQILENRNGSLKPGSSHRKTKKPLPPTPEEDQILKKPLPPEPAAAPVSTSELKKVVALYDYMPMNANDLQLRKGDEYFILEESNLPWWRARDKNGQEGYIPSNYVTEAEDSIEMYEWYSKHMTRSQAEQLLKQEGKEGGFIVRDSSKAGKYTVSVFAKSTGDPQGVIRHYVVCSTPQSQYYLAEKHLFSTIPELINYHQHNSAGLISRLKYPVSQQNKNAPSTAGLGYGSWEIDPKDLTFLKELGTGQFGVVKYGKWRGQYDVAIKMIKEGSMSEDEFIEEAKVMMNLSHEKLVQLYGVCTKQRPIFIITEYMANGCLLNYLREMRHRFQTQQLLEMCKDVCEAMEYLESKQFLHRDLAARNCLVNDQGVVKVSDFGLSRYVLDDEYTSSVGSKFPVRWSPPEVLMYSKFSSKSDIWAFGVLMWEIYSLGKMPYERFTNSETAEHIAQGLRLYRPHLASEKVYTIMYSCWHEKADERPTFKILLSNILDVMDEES

Regarding `C=CC(=O)Nc1cccc(Oc2nc(Nc3ccc(N4CCN(C)CC4)cc3)ncc2OC)c1` [Compound I-1, N-(3-(5-methoxy-2-(4-(4-methylpiperazin-1-yl)phenylamino)pyrimidin-4-yloxy)phenyl)acrylamide], the IC50 in experiment [1] is ≥ 400 nM; in experiment [2] (Btk Tyr223 phosphorylation, 45 min, 12 μg/mL IgM, read-out: BTK Inhibition), < 10 nM; in experiment [2] (treated 45 mins, read-out: inhibition IC50 of the phosphorylation of BTK protein), 1.1 nM; in experiment [3] it was ≤ 200 nM. The “reduction of the Btk Tyr223 phosphorylation in Ramos cells” value in experiment [2] (western blot) was “reduction of the Btk Tyr223 phosphorylation; also recorded: dose-dependent inhibition of the BTK phosphorylation”.
